Where a name gives a salt, the structure may show the parent alone. Read-outs that look alike come from different tables or passages of the source.
Experiments:
Type in all cases: cell-based
[1] = system: Candida albicans IFM 4080; test: Antifungal Test (agar dilution M.I.C.); conditions: for MIC: Candida albicans
Description: (§1) Respective agar plates were prepared by dissolving compounds under test in aseptic water to make a two fold dilution series, taking each 1 milliliter of said diluted solutions and 9 ml of Sabouraud medium into a petri dish, and sufficiently admixing the same.
(§2) On the other hand, an inoculum was prepared by cultivating an examined fungus (microorganism) on the Sabouraud slant medium and suspending two loopful of the incubated fungus in 10 ml of sterilized physiological saline water.
(§3) One loopful of the inoculum was streaked on the above-mentioned agar plate. After the agar plate was incubated at a defined temperature for a predetermined period of time to determine the minimal inhibitory concentration (M.I.C.).
Incubation temperature:
Incubation time: 3 days (72 hours) and
activity incubation conditions:
Incubation time 3 days (72 hours)
Incubation time 7 days (168 hours)
Incubation time 2 days (48 hours)

Candida Krusei AHU 3993 = test: Antifungal test when a serum is added; conditions: Pichia kudriavzevii, 27° C, read-out: M.I.C. of serum added
Description: as §1, §2, §3
(§4) Minimal inhibitory concentration (M.I.C.) was determined by preparing the agar plate medium in the same manner of the preceding pharmacological test 1, except for the addition of the horse serum. The concentration of the component in the medium was finally corrected, so that it may amount to the concentration of the component when the horse serum was not added.
(§5) Incubation temperature: […]

[2] = system: Candida albicans AHU 3656; test: Antifungal test when a serum is added; conditions: 27° C, read-out: M.I.C. of serum added
Description: as §1, §2, §3, §4, §5

[3] = system: Candida albicans IFM 4080; test: Antifungal test when a serum is added; conditions: 27° C, read-out: M.I.C. of serum added
Description: as §1, §2, §3, §4, §5

[4] = system: Candida albicans NAKAGAWA IFM 4017; test: Antifungal test when a serum is added; conditions: 27° C, read-out: M.I.C. of serum added
Description: as §1, §2, §3, §4, §5

[5] = system: Candida albicans Yu-1200 IFM 4020; test: Antifungal test when a serum is added; conditions: 27° C, read-out: M.I.C. of serum added
Description: as §1, §2, §3, §4, §5

[6] = system: Candida guilliermondii AHU 3654; test: Antifungal test when a serum is added; conditions: Meyerozyma guilliermondii, 27° C, read-out: M.I.C. of serum added
Description: as §1, §2, §3, §4, §5

[7] = system: Candida tropicalis AHU 3071; test: Antifungal test when a serum is added; conditions: 27° C, read-out: M.I.C. of serum added
Description: as §1, §2, §3, §4, §5

Candida utilis AHU 3053 = test: Antifungal test when a serum is added; conditions: Williopsis jadinii, 27° C, read-out: M.I.C. of serum added
Description: as §1, §2, §3, §4, §5

Cryptococcus neoformans = test: Antifungal test when a serum is added; conditions: 27° C, read-out: M.I.C. of serum added
Description: as §1, §2, §3, §4, §5

Candida albicans = test: Anti-candida activity (summary)
Description: as §1, §2, §3
Incubation time: 3 days (72 hours)

[8] = 168 h, 10 % horse serum, 7 days
[9] = 168 h, 30 % horse serum, 7 days

N=C(N)c1cccc(OCC2CCC(COc3cccc(C(=N)N)c3)CC2)c1 (stereo not shown) [Compound A, 1,4-Bis-(m,m'-amidinophenoxymethyl)-cyclohexane-dihydrochloride]
MIC ([1]; IFM4080, 48 h, Table 3, 37° C., 2 days): 0.8 µg/mL | MIC ([1]; IFM4080, 72 h, Table 3, 27° C., 3 days): 3.13 µg/mL | MIC ([1]; IFM4080, 168 h, Table 3, 27° C., 7 days): 6.25 µg/mL | M.I.C. ([1]; Table 1, 27° C., 3 days incubation): 3.13 µg/mL | M.I.C. ([1]; Table 1, 27° C., 7 days incubation): 6.25 µg/mL | M.I.C. ([1]; Table 3, 37° C., 3 days): 3.13 µg/mL | MIC (Candida Krusei AHU 3993; 72 h, 0 % horse serum, 3 days): > 100 µg/mL | MIC (Candida Krusei AHU 3993; 72 h, 10 % horse serum, 3 days): 200 µg/mL | MIC (Candida Krusei AHU 3993; 72 h, 30 % horse serum, 3 days): 100 µg/mL | MIC (Candida Krusei AHU 3993; 168 h, 0 % horse serum, 7 days): > 100 µg/mL | MIC (Candida Krusei AHU 3993; [8]): > 200 µg/mL | MIC (Candida Krusei AHU 3993; [9]): 100 µg/mL | MIC ([2]; AHU3656, 72 h, 0 % horse serum, 3 days): 3.13 µg/mL | MIC ([2]; AHU3656, 72 h, 10 % horse serum, 3 days): 25 µg/mL | MIC ([2]; AHU3656, 72 h, 30 % horse serum, 3 days): 25 µg/mL | MIC ([2]; AHU3656, 168 h, 0 % horse serum, 7 days): 6.25 µg/mL | MIC ([2]; AHU3656, 168 h, 10 % horse serum, 7 days): 25 µg/mL | MIC ([2]; AHU3656, 168 h, 30 % horse serum, 7 days): 25 µg/mL | MIC ([3]; IFM4080, 72 h, 0 % horse serum, 3 days): 3.13 µg/mL | MIC ([3]; IFM4080, 72 h, 10 % horse serum, 3 days): 12.5 µg/mL | MIC ([3]; IFM4080, 72 h, 30 % horse serum, 3 days): 12.5 µg/mL | MIC ([3]; IFM4080, 168 h, 0 % horse serum, 7 days): 6.25 µg/mL | MIC ([3]; IFM4080, 168 h, 10 % horse serum, 7 days): 12.5 µg/mL | MIC ([3]; IFM4080, 168 h, 30 % horse serum, 7 days): 12.5 µg/mL | MIC ([4]; 72 h, 0 % horse serum, 3 days): 3.13 µg/mL | MIC ([4]; 72 h, 10 % horse serum, 3 days): 25 µg/mL | MIC ([4]; 72 h, 30 % horse serum, 3 days): 6.25 µg/mL | MIC ([4]; 168 h, 0 % horse serum, 7 days): 3.13 µg/mL | MIC [4, 8]: 25 µg/mL | MIC [4, 9]: 6.2 µg/mL | MIC ([5]; YU1200IFM4020, 72 h, 0 % horse serum, 3 days): < 1.56 µg/mL | MIC ([5]; YU1200IFM4020, 72 h, 10 % horse serum, 3 days): 6.25 µg/mL | MIC ([5]; YU1200IFM4020, 72 h, 30 % horse serum, 3 days): 25 µg/mL | MIC ([5]; YU1200IFM4020, 168 h, 0 % horse serum, 7 days): 3.13 µg/mL | MIC ([5]; YU1200IFM4020, 168 h, 10 % horse serum, 7 days): 6.25 µg/mL | MIC ([5]; YU1200IFM4020, 168 h, 30 % horse serum, 7 days): 25 µg/mL | MIC ([6]; AHU3654, 72 h, 0 % horse serum, 3 days): 25 µg/mL | MIC ([6]; AHU3654, 72 h, 10 % horse serum, 3 days): 25 µg/mL | MIC ([6]; AHU3654, 72 h, 30 % horse serum, 3 days): 50 µg/mL | MIC ([6]; AHU3654, 168 h, 0 % horse serum, 7 days): 25 µg/mL | MIC ([6]; AHU3654, 168 h, 10 % horse serum, 7 days): 25 µg/mL | MIC ([6]; AHU3654, 168 h, 30 % horse serum, 7 days): 50 µg/mL | MIC ([7]; AHU3071, 72 h, 0 % horse serum, 3 days): 3.13 µg/mL | MIC ([7]; AHU3071, 72 h, 10 % horse serum, 3 days): 6.25 µg/mL | MIC ([7]; AHU3071, 72 h, 30 % horse serum, 3 days): 12.5 µg/mL | MIC ([7]; AHU3071, 168 h, 0 % horse serum, 7 days): 3.13 µg/mL | MIC ([7]; AHU3071, 168 h, 10 % horse serum, 7 days): 6.25 µg/mL | MIC ([7]; AHU3071, 168 h, 30 % horse serum, 7 days): 12.5 µg/mL | MIC (Candida utilis AHU 3053; AHU3053, 72 h, 0 % horse serum, 3 days): 3.13 µg/mL | MIC (Candida utilis AHU 3053; AHU3053, 72 h, 10 % horse serum, 3 days): 3.13 µg/mL | MIC (Candida utilis AHU 3053; AHU3053, 72 h, 30 % horse serum, 3 days): < 0.8 µg/mL | MIC (Candida utilis AHU 3053; AHU3053, 168 h, 0 % horse serum, 7 days): 3.13 µg/mL | MIC (Candida utilis AHU 3053; AHU3053, 168 h, 10 % horse serum, 7 days): 6.25 µg/mL | MIC (Candida utilis AHU 3053; AHU3053, 168 h, 30 % horse serum, 7 days): < 0.8 µg/mL | MIC (Cryptococcus neoformans; 72 h, 0 % horse serum, 3 days): 3.13 µg/mL | MIC (Cryptococcus neoformans; 72 h, 10 % horse serum, 3 days): 6.25 µg/mL | MIC (Cryptococcus neoformans; 72 h, 30 % horse serum, 3 days): 12.5 µg/mL | MIC (Cryptococcus neoformans; 168 h, 0 % horse serum, 7 days): 3.13 µg/mL | MIC (Cryptococcus neoformans; [8]): 12.5 µg/mL | MIC (Cryptococcus neoformans; [9]): 12.5 µg/mL | anti-candida activity compared with nystatin (Candida albicans): more excellent anti-candida activity than that of the nystatin
